Test results reported in PubChem BioAssay (NCI).
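1) Cells in 96-well plates. 2) Compound, 48 h, 5 concentrations. 3) Linear interpolation between surrounding doses. 4) Unreached endpoint = highest concentration. GI50 = concentration required for 50% inhibition of growth. TGI: concentration producing complete growth inhibition.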

Experiments:
Assay in all cases: NCI tumour cell line growth inhibition, 48 h
[1] = system: A498 renal
[2] = system: ACHN renal
[3] = system: MALME-3M melanoma
[4] = system: NCI-H23 lung
[5] = system: SN12C renal
[6] = system: SNB-19 CNS
[7] = system: T-47D breast
[8] = system: UO-31 renal
[9] = system: LOX IMVI melanoma
[10] = system: SW-620 colon

## C[Si](C)(C)c1ccc(-c2c3ccc(-c4cc(Br)cc(Br)c4)nc3nc3nc(-c4cc(Br)cc(Br)c4)ccc23)cc1
[1]
  TGI: > 100 µM
[2]
  TGI: > 100 µM
[3]
  TGI: > 100 µM
[4]
  TGI: > 100 µM
[5]
  TGI: > 100 µM
[6]
  TGI: > 100 µM
[7]
  TGI: > 100 µM
[8]
  TGI: > 100 µM

## CC(C)CCCC(C)[C@H]1CC[C@H]2n3c(nc4ccccc43)CCC[C@]12C (stereo partly specified)
[1]
  TGI: 28 µM
[9]
  TGI: > 100 µM
[3]
  TGI: 46.1 µM
[4]
  TGI: 34.4 µM
[5]
  TGI: 31.1 µM
[6]
  TGI: 37.1 µM
[10]
  TGI: 47.3 µM
[7]
  TGI: 35.8 µM
[8]
  TGI: 28.6 µM

## CCOC(=O)CCC(C(=O)OCC)n1nc2ccc(Nc3c(C)[n+]([O-])c4cc(F)c(OCC)cc4[n+]3[O-])cc2n1 (stereo unspecified)
[1]
  TGI: > 100 µM
[2]
  TGI: > 100 µM
[9]
  TGI: > 100 µM
[3]
  TGI: > 100 µM
[4]
  TGI: > 100 µM
[5]
  TGI: > 100 µM
[6]
  TGI: > 100 µM
[10]
  TGI: > 100 µM
[7]
  TGI: > 100 µM
[8]
  TGI: > 100 µM

## CON(C)C(=O)[C@H]1C[C@@]1(C)CO
[1]
  TGI: > 100 µM
[2]
  TGI: > 100 µM
[3]
  TGI: > 100 µM
[4]
  TGI: > 100 µM
[5]
  TGI: > 100 µM
[6]
  TGI: > 100 µM
[10]
  TGI: > 100 µM
[7]
  TGI: > 100 µM
[8]
  TGI: > 100 µM

## CCc1n[nH]c(=O)n1/N=C(\C)c1ccc([N+](=O)[O-])cc1
[9]
  TGI: > 100 µM
[4]
  TGI: > 100 µM
[5]
  TGI: > 100 µM
[6]
  TGI: > 100 µM
[10]
  TGI: > 100 µM
[7]
  TGI: > 100 µM
[8]
  TGI: > 100 µM

## C=C1C(=O)O[C@@H]2/C=C(\C)CC/C=C(\C)CC[C@@]12O
[1]
  TGI: 24.8 µM
[2]
  TGI: 3.36 µM
[9]
  TGI: 5.23 µM
[3]
  TGI: 3.05 µM
[4]
  TGI: 4.32 µM
[5]
  TGI: 7.91 µM
[6]
  TGI: 16.9 µM
[10]
  TGI: 3.46 µM
[7]
  TGI: 3.33 µM
[8]
  TGI: 2.86 µM

## CNC1Cc2c[nH]c3cccc(c23)C12C=C(C)C(=O)O2 (stereo unspecified)
[1]
  TGI: > 100 µM
[2]
  TGI: > 100 µM
[9]
  TGI: > 100 µM
[3]
  TGI: > 100 µM
[4]
  TGI: > 100 µM
[5]
  TGI: > 100 µM
[6]
  TGI: > 100 µM
[10]
  TGI: > 100 µM
[7]
  TGI: > 100 µM
[8]
  TGI: > 100 µM

## COC(=O)C1=C(C)N2CCSC2(C)C(C(=O)OC)C1c1cccc(Cl)c1 (stereo unspecified)
[2]
  TGI: > 100 µM
[4]
  TGI: 73.8 µM
[6]
  TGI: 73.2 µM
[10]
  TGI: > 100 µM
[8]
  TGI: 38.3 µM

## OCC(O)CNc1ncnc2ccccc12 (stereo unspecified)
[1]
  TGI: > 100 µM
[2]
  TGI: > 100 µM
[9]
  TGI: > 100 µM
[3]
  TGI: > 100 µM
[4]
  TGI: > 100 µM
[5]
  TGI: > 100 µM
[6]
  TGI: > 100 µM
[10]
  TGI: > 100 µM
[7]
  TGI: > 100 µM
[8]
  TGI: > 100 µM

## CC(C)(C)c1ccc2c(c1)C#Cc1cc(C(C)(C)C)ccc1OCCCO2
[1]
  TGI: > 100 µM
[2]
  TGI: > 100 µM
[9]
  TGI: > 100 µM
[3]
  TGI: > 100 µM
[4]
  TGI: > 100 µM
[5]
  TGI: > 100 µM
[6]
  TGI: > 100 µM
[10]
  TGI: > 100 µM
[7]
  TGI: > 100 µM
[8]
  TGI: > 100 µM

## CC(C)(C)OC(=O)N1C(OP(=O)(Oc2ccccc2)Oc2ccccc2)=CSc2ccccc21
[2]
  TGI: > 100 µM
[9]
  TGI: > 100 µM
[3]
  TGI: 88.1 µM
[4]
  TGI: > 100 µM
[5]
  TGI: > 100 µM
[6]
  TGI: > 100 µM
[10]
  TGI: > 100 µM
[7]
  TGI: > 100 µM
[8]
  TGI: > 100 µM

## O=C(NC(Cc1ccc(Br)cc1)C(=O)O)c1ccc(I)cc1 (stereo unspecified)
[1]
  TGI: > 100 µM
[9]
  TGI: > 100 µM
[3]
  TGI: > 100 µM
[4]
  TGI: > 100 µM
[5]
  TGI: > 100 µM
[6]
  TGI: > 100 µM
[10]
  TGI: > 100 µM
[8]
  TGI: > 100 µM

## Nc1ccc(O)c2c1C(=O)c1c(N)ccc(O)c1C2=O
[1]
  TGI: > 100 µM
[2]
  TGI: > 100 µM
[9]
  TGI: > 100 µM
[3]
  TGI: > 100 µM
[4]
  TGI: > 100 µM
[5]
  TGI: > 100 µM
[6]
  TGI: > 100 µM
[10]
  TGI: > 100 µM
[8]
  TGI: > 100 µM

## O=C(Oc1c(Cl)cc(C2(c3cc(Cl)c(OC(=O)c4ccccc4)c(Cl)c3)CCCCC2)cc1Cl)c1ccccc1
[1]
  TGI: 24.1 µM
[2]
  TGI: 17.6 µM
[9]
  TGI: 29.1 µM
[4]
  TGI: 23.4 µM
[5]
  TGI: 28.2 µM
[6]
  TGI: 35.4 µM
[10]
  TGI: 39.5 µM
[7]
  TGI: 37.2 µM
[8]
  TGI: 35.3 µM

## OC[C@H]1NC[C@@H](O)[C@@H](O)[C@H]1O
[1]
  TGI: > 100 µM
[9]
  TGI: > 100 µM
[3]
  TGI: > 100 µM
[4]
  TGI: > 100 µM
[5]
  TGI: > 100 µM
[6]
  TGI: > 100 µM
[10]
  TGI: > 100 µM
[7]
  TGI: > 100 µM
[8]
  TGI: > 100 µM

## CSc1nc(CO)c(CO)n1C
[1]
  TGI: > 100 µM
[9]
  TGI: > 100 µM
[4]
  TGI: > 100 µM
[5]
  TGI: > 100 µM
[6]
  TGI: > 100 µM
[10]
  TGI: > 100 µM
[8]
  TGI: > 100 µM

## COc1cc(/C=C2\N=C(c3ccccc3)N(c3ccc(C(=O)c4ccccc4)cc3N3C(=O)/C(=C/c4ccc(O)c(OC)c4)N=C3c3ccccc3)C2=O)ccc1O
[1]
  TGI: 36.7 µM
[2]
  TGI: 57.2 µM
[9]
  TGI: 37.1 µM
[5]
  TGI: 62.7 µM
[6]
  TGI: > 100 µM
[10]
  TGI: > 100 µM
[7]
  TGI: 27.3 µM
[8]
  TGI: 27.6 µM

## CN(C)CCNC(=O)c1cc(Cl)cc2cc3ccccc3nc12
[1]
  TGI: 2.2 µM
[9]
  TGI: 2.6 µM
[3]
  TGI: 14.9 µM
[4]
  TGI: 3.42 µM
[5]
  TGI: 6.9 µM
[6]
  TGI: 7.47 µM
[10]
  TGI: 7.02 µM
[8]
  TGI: 4.12 µM

## C[C@@H]1C(=O)O[C@H]1[C@H](O)CO
[1]
  TGI: > 100 µM
[2]
  TGI: > 100 µM
[9]
  TGI: > 100 µM
[4]
  TGI: > 100 µM
[5]
  TGI: > 100 µM
[6]
  TGI: > 100 µM
[10]
  TGI: > 100 µM
[7]
  TGI: > 100 µM

## O=C(CSCC(=O)N/N=C/c1ccccc1)N/N=C\c1ccccc1
[2]
  TGI: > 100 µM
[9]
  TGI: > 100 µM
[3]
  TGI: > 100 µM
[4]
  TGI: > 100 µM
[5]
  TGI: > 100 µM
[6]
  TGI: > 100 µM
[10]
  TGI: > 100 µM
[7]
  TGI: > 100 µM
[8]
  TGI: > 100 µM

## NC(CCOCCP(=O)(O)CCC1C=CC=CC1)C(=O)O (stereo unspecified)
[2]
  TGI: > 100 µM
[9]
  TGI: > 100 µM
[4]
  TGI: > 100 µM
[5]
  TGI: > 100 µM
[6]
  TGI: > 100 µM
[10]
  TGI: > 100 µM
[7]
  TGI: > 100 µM
[8]
  TGI: > 100 µM

## CC(=O)O[C@H]1CC[C@H]2[C@@H]3CCC4=CC(=O)C=C[C@]4(O)[C@H]3CC[C@]12C
[1]
  TGI: > 100 µM
[2]
  TGI: > 100 µM
[9]
  TGI: > 54.4 µM
[4]
  TGI: > 62.4 µM
[5]
  TGI: > 100 µM
[6]
  TGI: > 100 µM
[10]
  TGI: > 57.5 µM
[7]
  TGI: > 100 µM
[8]
  TGI: > 100 µM
